Data on 17 molecules can be found in patent US5807854A, “Pyrimidone derivatives with antifungal activity” (J. Uriah & Cia. S.A., priority 1995, dated 1998).

One assay relates to C. krusei. Briefly: In vitro activity by the agar dilution method, C. krusei. Format: cell-based. The conditions noted are these: Pichia kudriavzevii; Kimmig's agar, 25° C., 48 h; read-out: MIC (minimal inhibitory concentration), C. krusei. As to the method: (§1) In vitro activity was evaluated against C. albicans, C. krusei, and Aspergillus fumigatus by the agar dilution method. Test strains were either clinical isolates or were obtained from ATCC. Stock solutions containing 800 μg/mL were prepared by solving the test products in 50% ethanol. The culture medium used was Kimmig's agar (K. A., E. Merck) supplemented with 0.5% glycerol. Plates containing serial dilutions (80 to 0.025 gg/imL) of the test products were inoculated with 10 μL of the fungal inocula, containing 10^5 colony forming units (cfu)/mL. Plates were incubated at 25° C. during 48 h for Candida sp. and during 5 days for Apergillus fumigatus. Following incubation MICs (minimal inhibitory concentrations) were determined.
On the technique in general: In agar dilution the substance is mixed into plates at graded concentrations.

A further assay concerns systemic aspergillosis. Nature of the assay: In Vivo Activity (Systemic Aspergillosis). More on the design: species or system mice. The note with it: p.o. 20 mg/kg/day, 5 days; control mortality on day 25 was 90%.
In a further assay the test system is Candida albicans. Briefly: In Vivo Activity (Systemic Candidiasis). The note with it: po, 576 h, male mice, i.v. infection, read-out: protection on the day where all the animals in the control group had died; for responders at 10 mg/kg: orally at 10 mg/kg (asterisk) at 1, 4 and 24 h after infection; for responders at 1 mg/kg: orally at 1 mg/kg at 1, 4 and 24 h after infection. As to the method: Groups of 10 male mice were inoculated i.v. with 0.2 mL of a suspension containing (2-8)×10^7 cfu/mL of Candida albicans. Compounds were administered orally at 1 mg/kg (or at 10 mg/kg for those compounds marked with an asterisk) at times 1, 4 and 24 h after infection.

A further assay relates to C. albicans. Briefly: In vitro activity by the agar dilution method, C. albicans. Format: cell-based. The note with it: Candida albicans; Kimmig's agar, 25° C., 48 h; read-out: MIC (minimal inhibitory concentration), C. albicans. As to the method:
as §1

The test system of the next assay is Aspergillus fumigatus. Nature of the assay: In vitro activity by the agar dilution method, Aspergillus fumigatus. Format: cell-based. The note with it: 120 h, Kimmig's agar, 25° C., 5 days, read-out: MIC (minimal inhibitory concentration), Asp. fumigatus. As to the method: as §1

Values after ≈ are worked out from the molar mass of the structure shown.

With `C[C@@H](n1cnc2cc(Cl)ccc2c1=O)[C@](O)(Cn1cncn1)c1ccc(F)cc1F` [Example 1, (1R,2R)-7-Chloro-3-[2-(2,4-difluorophenyl)-2-hydroxy-1-methyl-3-(1H-1,2,4-triazol-1-yl)propyl]quinazolin-4(3H)-one], the MIC in the assay on C. krusei is 0.63 µg/mL (≈ 1.46 µM); in the assay with C. albicans, no more than 0.03 µg/mL; in the assay on Aspergillus fumigatus, 0.31 µg/mL (≈ 0.718 µM). Besides, in the assay with systemic aspergillosis, the “protection on day 25 postinfection” value is 60-100%. Also, the responders at 10 mg/kg in the assay on Candida albicans is 100%.
Turning to `C[C@@H](n1cnc2cc(C#N)ccc2c1=O)[C@](O)(Cn1cncn1)c1ccc(F)cc1F` [Example 2, (1R,2R)-7-Cyano-3-[2-(2,4-difluorophenyl)-2-hydroxy-1-methyl-3-(1H-1,2,4-triazol-1-yl)propyl]quinazolin-4(3H)-one], the MIC is 1.25 µg/mL (≈ 2.96 µM) in the assay with C. krusei, no more than 0.03 µg/mL in the assay on C. albicans and 1.25 µg/mL (≈ 2.96 µM) in the assay on Aspergillus fumigatus. Further, the “protection on day 25 postinfection” value with systemic aspergillosis is reported as 60-100%.
`C[C@@H](n1cnc2ccc(Cl)cc2c1=O)[C@](O)(Cn1cncn1)c1ccc(F)cc1F` [Example 7, (1R,2R)-6-Chloro-3-[2-(2,4-difluorophenyl)-2-hydroxy-1-methyl-3-(1H-1,2,4-triazol-1-yl)propyl]quinazolin-4(3H)-one]: the values for the MIC in the assay with C. krusei, in the assay with C. albicans and in the assay with Aspergillus fumigatus were 2.5 µg/mL (≈ 5.79 µM), no more than 0.03 µg/mL and 40 µg/mL (≈ 92.6 µM), respectively. Moreover, the responders at 1 mg/kg in the assay with Candida albicans is 100%.
As to `C[C@@H](n1cnc2cc(C(F)(F)F)ccc2c1=O)[C@](O)(Cn1cncn1)c1ccc(F)cc1F` [Example 16, (1R,2R)-3-[2-(2,4-Difluorophenyl)-2-hydroxy-1-methyl-3-(1H-1,2,4-triazol-1-yl)propyl]-7-trifluoromethylquinazolin-4(3H)-one], the MIC was 0.63 µg/mL (≈ 1.35 µM) in the assay with C. krusei, no more than 0.03 µg/mL in the assay with C. albicans and 2.5 µg/mL (≈ 5.37 µM) in the assay with Aspergillus fumigatus. Moreover, the “protection on day 25 postinfection” value with systemic aspergillosis was 60-100%. Also, the responders at 1 mg/kg in the assay on Candida albicans was 100%.
`C[C@@H](n1cnc2cc(OCC(F)(F)C(F)F)ccc2c1=O)[C@](O)(Cn1cncn1)c1ccc(F)cc1F` [Example 17, (1R,2R)-3-[2-(2,4-Difluorophenyl)-2-hydroxy-1-methyl-3-(1H-1,2,4-triazol-1-yl)propyl]-7-(2,2,3,3-tetrafluoropropoxy)quinazolin-4(3H)-one]: the MIC in the assay on C. krusei was 0.63 µg/mL (≈ 1.19 µM); in the assay on C. albicans it was no more than 0.03 µg/mL; in the assay with Aspergillus fumigatus, 20 µg/mL (≈ 37.9 µM). The responders at 1 mg/kg in the assay with Candida albicans stood at 100%.
With `C[C@@H](n1cnc2cc(OCC(F)(F)F)ccc2c1=O)[C@](O)(Cn1cncn1)c1ccc(F)cc1F` [Example 20, (1R,2R)-3-[2-(2,4-Difluorophenyl)-2-hydroxy-1-methyl-3-(1H-1,2,4-triazol-1-yl)propyl]-7-(2,2,2-trifluoroethoxy)quinazolin-4(3H)-one], the MIC stood at 1.25 µg/mL (≈ 2.52 µM) with C. krusei, 0.31 µg/mL (≈ 0.626 µM) in the assay with C. albicans and 10 µg/mL (≈ 20.2 µM) in the assay with Aspergillus fumigatus. For the same molecule, in the assay with Candida albicans, the responders at 1 mg/kg came to 100%.
Turning to `C[C@@H](n1cnc2cc(-c3ccc(Cl)cc3)sc2c1=O)[C@](O)(Cn1cncn1)c1ccc(F)cc1F` [Example 31, (1R,2R)-6-(4-Chlorophenyl)-3-[2-(2,4-difluorophenyl)-2-hydroxy-1-methyl-3-(1H-1,2,4-triazol-1-yl)propyl]thieno[3,2-d]pyrimidin-4(3H)-one], the figures for the MIC in the assay with C. krusei, in the assay on C. albicans and in the assay with Aspergillus fumigatus were 0.07 µg/mL (≈ 0.136 µM), no more than 0.03 µg/mL and 2.5 µg/mL (≈ 4.86 µM), respectively. In addition, the “protection on day 25 postinfection” value in the assay with systemic aspergillosis is listed as 60-100%. In the assay on Candida albicans, the responders at 1 mg/kg was 100%.
In the case of `C[C@@H](n1cnc2cc(-c3ccc(C#N)cc3)sc2c1=O)[C@](O)(Cn1cncn1)c1ccc(F)cc1F` [Example 32, (1R,2R)-4-[3-[2-(2,4-Difluorophenyl)-2-hydroxy-1-methyl-3-(1H-1,2,4-triazol-1-yl)propyl]-4-oxo-3,4-dihydrothieno[3,2-d]pyrimidin-6-yl]benzonitrile], the “protection on day 25 postinfection” value with systemic aspergillosis is listed as 60-100%. For the same molecule, in the assay with Candida albicans, the responders at 1 mg/kg was determined as 100%.
Consider `C[C@@H](n1cnc2cc(Oc3ccc(Cl)cc3)ccc2c1=O)[C@](O)(Cn1cncn1)c1ccc(F)cc1F` [Example 39, (1R,2R)-7-(4-Chlorophenoxy)-3-[2-(2,4-difluorophenyl)-2-hydroxy-1-methyl-3-(1H-1,2,4-triazol-1-yl)propyl]quinazolin-4(3H)-one], for which the MIC is 0.15 µg/mL (≈ 0.286 µM) with C. krusei, no more than 0.03 µg/mL with C. albicans and 1.25 µg/mL (≈ 2.39 µM) in the assay on Aspergillus fumigatus. Further, in the assay with Candida albicans, the responders at 1 mg/kg amounted to 100%.
In the same order, the values of `CSc1ccc2c(=O)n([C@H](C)[C@](O)(Cn3cncn3)c3ccc(F)cc3F)cnc2c1` [Example 50, (1R,2R)-3-[2-(2,4-Difluorophenyl)-2-hydroxy-1-methyl-3-(1H-1,2,4-triazol-1-yl)propyl]-7-(methylthio)quinazolin-4(3H)-one] are 0.31 µg/mL (≈ 0.699 µM), no more than 0.03 µg/mL, 2.5 µg/mL (≈ 5.64 µM) and 100%.
In the case of `CONC(=N)c1ccc(-c2cc3ncn([C@H](C)[C@](O)(Cn4cncn4)c4ccc(F)cc4F)c(=O)c3s2)cc1` [Example 67, (1R,2R)-3-[2-(2,4-Difluorophenyl)-2-hydroxy-1-methyl-3-(1H-1,2,4-triazol-1-yl)propyl]-6-[4-[imino(methoxyamino)methyl]phenyl]thieno[3,2-d]pyrimidin-4(3H)-one], the MIC was determined as 0.63 µg/mL (≈ 1.14 µM) in the assay on C. krusei, 0.31 µg/mL (≈ 0.562 µM) in the assay on C. albicans and 1.25 µg/mL (≈ 2.27 µM) in the assay with Aspergillus fumigatus. For the same molecule, the responders at 1 mg/kg in the assay on Candida albicans turned out to be 100%.
Turning to `C[C@@H](n1cnc2cc(NCc3ccccc3)ccc2c1=O)[C@](O)(Cn1cncn1)c1ccc(F)cc1F` [Example 71, (1R,2R)-7-Benzylamino-3-[2-(2,4-difluorophenyl)-2-hydroxy-1-methyl-3-(1H-1,2,4-triazol-1-yl)propyl]quinazolin-4(3H)-one], the MIC is 2.5 µg/mL (≈ 4.97 µM) in the assay on C. krusei, no more than 0.03 µg/mL in the assay on C. albicans and 5 µg/mL (≈ 9.95 µM) with Aspergillus fumigatus.
Consider `C[C@@H](n1cnc2cc(Br)ccc2c1=O)[C@](O)(Cn1cncn1)c1ccc(F)cc1F` [Example 73, (1R,2R)-7-Bromo-3-[2-(2,4-difluorophenyl)-2-hydroxy-1-methyl-3-(1H-1,2,4-triazol-1-yl)propyl]quinazolin-4(3H)-one], for which the MIC is 0.31 µg/mL (≈ 0.651 µM) with C. krusei, no more than 0.03 µg/mL in the assay with C. albicans and 0.31 µg/mL (≈ 0.651 µM) with Aspergillus fumigatus. In addition, in the assay on systemic aspergillosis, the “protection on day 25 postinfection” value is 60-100%. The responders at 10 mg/kg in the assay on Candida albicans was 100%.
Consider `C[C@@H](n1cnc2cc(I)ccc2c1=O)[C@](O)(Cn1cncn1)c1ccc(F)cc1F` [Example 74, (1R,2R)-3-[2-(2,4-Difluorophenyl)-2-hydroxy-1-methyl-3-(1-H-1,2,4-triazol-1-yl)propyl]-7-iodoquinazolin-4(3H)-one], for which the MIC with C. krusei was 0.31 µg/mL (≈ 0.592 µM); in the assay on C. albicans, no more than 0.03 µg/mL; with Aspergillus fumigatus, 0.31 µg/mL (≈ 0.592 µM). For the same molecule, the responders at 1 mg/kg in the assay on Candida albicans came to 100%.
Consider `C[C@@H](n1cnc2cc(Br)c(F)cc2c1=O)[C@](O)(Cn1cncn1)c1ccc(F)cc1F` [Example 75, (1R,2R)-7-Bromo-3-[2-(2,4-difluorophenyl)-2-hydroxy-1-methyl-3-(1H-1,2,4-triazol-1-yl)propyl]-6-fluoroquinazolin-4(3H)-one], for which the MIC in the assay with C. krusei stood at 1.25 µg/mL (≈ 2.53 µM); with C. albicans it was 0.15 µg/mL (≈ 0.303 µM); in the assay with Aspergillus fumigatus, 2.5 µg/mL (≈ 5.06 µM). Besides, the responders at 1 mg/kg in the assay on Candida albicans was 100%.
For the molecule `C[C@@H](n1cnc2cc(-c3ccc(F)cc3)sc2c1=O)[C@](O)(Cn1cncn1)c1ccc(F)cc1F` [Example 76, (1R,2R)-3-[2-(2,4-Difluorophenyl)-2-hydroxy-1-methyl-3-(1-H-1,2,4-triazol-1-yl)propyl]-6(4-fluorophenyl)thieno[3,2-d]pyrimidin-4(3H)-one], the values for the MIC in the assay on C. krusei, in the assay with C. albicans and in the assay with Aspergillus fumigatus were 0.15 µg/mL (≈ 0.302 µM), no more than 0.03 µg/mL and 1.25 µg/mL (≈ 2.51 µM), respectively. In addition, the responders at 1 mg/kg with Candida albicans is 100%.
In the same order, the values of `C[C@@H](n1cnc2cc(-c3ccc(F)cc3)sc2c1=O)[C@](O)(Cn1cncn1)c1ccccc1F` [Example 81, (1R,2R)-6-(4-Fluorophenyl)-3-[2-(2-fluorophenyl)-2-hydroxy-1-methyl-3-(1H-1,2,4-triazol-1-yl)propyl]thieno[3,2-d]pyrimidin-4(3H)-one] are 0.31 µg/mL (≈ 0.646 µM), no more than 0.03 µg/mL, 10 µg/mL (≈ 20.9 µM) and 100%.
